{"source": "patent US6867305B2", "about": "“Synthesis of epothilones, intermediates thereto and analogues thereof” (Sloan-Kettering Institute for Cancer Research, priority 1996, dated 2005)", "key": {"[1]": {"system": "MCF-7 human mammary adenocarcinoma", "assay": "Tumor cell growth inhibition in vitro", "type": "cell-based", "details": "read-out: IC50", "protocol": "(§1) The cells were cultured at an initial density of 2-5×10^4 cells per ml. […] For solid tumor cells growing in a monolayer (such as MCF-7/Adr), cytotoxicitiy of the drug was determined in 96-well microtiter plates by using the sulforhodamine B method as described by Skehan et al (23) for measuring the cellular protein content. For cells that were grown in suspension (such as CCRF-CEM and its sublines), cytotoxicitiy was measured by using the 2,-3-bis(2-methoxy-4-nitro-5-sulfophenyl)-5carboxanilide)-2H terazodium hydroxide (XTT)-microculture tetrazonium method (24) in duplicate in 96-well microtiter plates. For both methods, the absorbance of each well was measured with a microplate reader (EL-340, Bio-Tek, Burlington, Vt.). Each run entailed six or seven concentrations of the tested drugs. Dose-effect relationship data were analyzed with the median-effect plot (25) by using a previously described computer program (26)."}, "MCF-7/Adr": {"system": "MCF-7/Adr", "assay": "Tumor cell growth inhibition in vitro", "type": "cell-based, human", "details": "MCF-7/Adr", "protocol": "as §1"}, "[2]": {"system": "PC-3 prostate adenocarcinoma xenograft", "assay": "Human tumor xenograft in nude mice", "type": "in vivo", "protocol": "(§2) Depending on the tumor type, treatment started on day 10 to day 21 when subcutaneous tumor size reached 35-200 mm^3, except otherwise indicated. Tumor size and body-weight were recorded every other day (Q2D) and, for humane reasons, the animals were sacrificed when tumor size reached ≧10% of body-weight. Each group, including untreated control, consisted of 3-5 animals unless otherwise indicated.\n(§3) Athymic nude mice bearing the nu/nu gene were used for all human tumor xenografts. Outbred, Swiss-background mice were obtained from Charles River Laboratories. Male mice 8 weeks or older weighing 22 g and up were used for most experiments. The drug was administered via the tail vein for 6 hr.-i.v. infusion. Each individual mouse was confined in a perforated Falcon polypropylene tube restrainer for drug administration. Tumor volume was assessed by measuring length×width×height (or width) using a caliper. The programmable Harvard PHD2000 syringe pump (Harvard Apparatus) with multi-track was used for i.v. infusion. […] All animal studies were conducted in accordance with the guidelines of the National Institutes of Health “Guide for the Care and Use of Animals” and the protocol approved by the Memorial Sloan-Kettering Cancer Center's Institutional Animal Care and Use Committee. In keeping with the policy of this committee for the humane treatment of tumor-bearing animals, mice were euthanized when tumors reached ≧10% of their total body weight.\n(§4) Human tumor cells (5×10^6) or tumor tissue (30-50 mg) were implanted s.c. flank in nu/nu mice (Charles River Laboratories, Wilmington, Mass.). When tumor grew to a specified size, treatment was started by every-other day×5 with 6 hr i.v.-infusion, unless otherwise indicated. Tumor volume was measured with calipers in three dimensions (length×width×height or width). Body-weight changes and lethality were monitored every other day."}, "[3]": {"system": "MCF-7/Adr mammary xenograft", "assay": "Human tumor xenograft in nude mice", "type": "in vivo"}, "[4]": {"system": "K562 chronic myelocytic leukemia xenograft", "assay": "Human tumor xenograft in nude mice", "type": "in vivo", "protocol": "FIG. 34 depicts tumor size in nude mice bearing human leukemia […] tumor following 6 mg/kg C-15-Aza-EpoB, Q2D×6 and 30 mg/kg dEpoF, Q2ED×6 (i.v. infusion […].). K562 tumor cells (1×10^7 in 0.2 mL) were inoculated to nude mice on day 0. Mice were treated with 6 mg/kg aza-EpoB, 6 h-i.v. infusion on days 20, 22, 24, 26, 28 and 30 (Δ, n=3). The same group of mice were then treated with 30 mg/kg dEpoF, 6 h-i.v. infusion on days 42, 44, 46, 48, 52, and 54 (Δ, n=3). […] The control mice (∘, n=3) received vehicle only.\nK562 tumor cells (1×10^7, in 0.2 ml/mouse) were implanted s.c. on day 0. […] The control mice (∘, n=4) received vehicle, Cremophor-ethanol (1:1), only. The vertical bars indicate mean tumor size in mm^3±S.E.\nas §2, §3, §4"}, "[5]": {"system": "MX-1 mammary carcinoma xenograft", "details": "MX-1, i.p., ref 19 (Table 4)"}, "tubulin": {"system": "tubulin", "assay": "Tubulin-binding / tubulin polymerization assay", "type": "biochemical"}, "[6]": {"system": "CCRF-CEM human T-cell acute lymphoblastic leukemia cells", "assay": "Tumor cell growth inhibition in vitro (XTT, 72 h)", "type": "cell-based", "details": "CCRF-CEM, 72 h incubation", "protocol": "(§5) The fresh medium containing each drug was replenished every 7-14 days. […] In each case ,the drug-exposed cells were resuspended in fresh media for a minimum of 4 days before the experiments for the cell-growth inhibition was carried out.\n(§6) The cells were cultured at an initial density of 2-5×10^4 cells per ml. They were maintained in a 5% CO2-humidified atmosphere at 37° C. in RPMI mediun 1640 (GIBCO/BRL) containing penicillin (100 units/ml), streptomycin (100 μg/ml) (GIBCO/BRL), and 5% heat-inactivated fetal bovine serum. For solid tumor cells growing in a monolayer (such as MCF-7/Adr), cytotoxicitiy of the drug was determined in 96-well microtiter plates by using the sulforhodamine B method as described by Skehan et al (23) for measuring the cellular protein content. For cells that were grown in suspension (such as CCRF-CEM and its sublines), cytotoxicitiy was measured by using the 2,-3-bis(2-methoxy-4-nitro-5-sulfophenyl)-5carboxanilide)-2H terazodium hydroxide (XTT)-microculture tetrazonium method (24) in duplicate in 96-well microtiter plates. For both methods, the absorbance of each well was measured with a microplate reader (EL-340, Bio-Tek, Burlington, Vt.). Each run entailed six or seven concentrations of the tested drugs. Dose-effect relationship data were analyzed with the median-effect plot (25) by using a previously described computer program (26)."}, "[7]": {"system": "CCRF-CEM/VM1 (teniposide-resistant subline)", "assay": "Tumor cell growth inhibition in vitro (XTT, 72 h)", "type": "cell-based, human", "details": "Homo sapiens, CCRF-CEM, 72 h", "protocol": "as §5, §6"}, "CCRF-CEM/VM2": {"system": "CCRF-CEM/VM2", "assay": "Cell growth inhibition, resistant subline", "type": "cell-based, human", "protocol": "as §5, §6"}, "[8]": {"system": "A549 lung carcinoma xenograft", "assay": "Human tumor xenograft in nude mice", "type": "in vivo", "details": "A549, i.v. infusion", "protocol": "as §2, §3, §4"}, "[9]": {"system": "MX-1 human mammary carcinoma", "assay": "Tumor cell growth inhibition in vitro", "type": "cell-based", "protocol": "as §1"}, "[10]": {"system": "UL-3-C ovarian adenocarcinoma", "assay": "Tumor cell growth inhibition in vitro", "type": "cell-based, human", "details": "read-out: IC50", "protocol": "as §5, §6"}, "B16 Melanoma": {"system": "B16 Melanoma", "type": "in vivo, murine", "details": "B16 Melanoma, i/p, maximal tolerated doses"}, "[11]": {"assay": "Body-weight decrease and lethality in tumor-bearing nude mice", "details": "nude mice", "protocol": "as §2\nEssential features of useful cancer therapeutic agent involve not only high efficiency against cancer but also low toxicity toward the host, especially toward vital organs or functions [i.e. wide therapeutic window or high therapeutic index (LD50/ED50)].\nas §4"}}, "note": "pIC50: −log10 of the molar value. Where two headings read alike, the source gives them in different places.", "data": [{"smiles": "COc1cccc2c1C(=O)c1c(O)c3c(c(O)c1C2=O)C[C@@](O)(C(=O)CO)C[C@@H]3O[C@H]1C[C@H](N)[C@H](O)[C@H](C)O1", "note": "[Adriamycin, doxorubicin, reference compound]", "values": [{"measurement": "pIC50", "setting": "[1]; Homo sapiens, MCF7, MCF-7", "value": 7.09}, {"measurement": "pIC50", "setting": "[1]; MCF-7", "value": 7.05}, {"measurement": "pIC50", "setting": "MCF-7/Adr; Homo sapiens, NCI/ADR-RES", "value": 6.55}, {"measurement": "pIC50", "setting": "MCF-7/Adr", "value": 6.50}, {"measurement": "Therapeutic Effect Rank Order", "setting": "[2]; PC-3, i.v. or i/p.", "value": "Taxol>dEpoB>>Adriamycin"}, {"measurement": "Therapeutic Effect Rank Order", "setting": "[3]; i.p., ref 19 (Table 5)", "value": "dEpoB>Camptothecin>Adriamycin>Taxol"}, {"measurement": "Therapeutic Effect Rank Order", "setting": "[3]; i.v. infusion", "value": "dEpoB>>VP-16, Taxol>VBL, Adriamycin"}, {"measurement": "Therapeutic Effect Rank Order", "setting": "[4]; K562, i.v. infusion, FIG. 3 & 4", "value": "dEpoB>>>VBL> Taxol> Adriamycin"}, {"measurement": "therapeutic effect", "setting": "[4]; K562, dEpoB 30 mg/kg, Taxol 20 mg/kg 6 hr i.v. infusion, Adriamycin 3 mg/kg, vinblastine 2.5 mg/kg i.v., every other day from day 20 (FIG. 36)", "value": "only partial curative or remissive effects"}]}, {"smiles": "CC[C@@]1(O)C(=O)OCc2c1cc1n(c2=O)Cc2cc3ccccc3nc2-1", "note": "[Camptothecin, camptothecin, reference compound]", "values": [{"measurement": "Therapeutic Effect Rank Order", "setting": "[3]; i.p., ref 19 (Table 5)", "value": "dEpoB>Camptothecin>Adriamycin>Taxol"}, {"measurement": "Therapeutic Effect Rank Order", "setting": "[5]", "value": "dEpoB>Camptothecin>Taxol>VBL, EpoB"}]}, {"smiles": "C/C1=C/CC(/C(C)=C/c2csc(COC(=O)c3c(F)c(F)c(N=[N+]=[N-])c(F)c3F)n2)OC(=O)CC(O)C(C)(C)C(=O)C(C)C(O)[C@@H](C)CCC1", "note": "(some centres unmarked) [compound 66]", "values": [{"measurement": "induction of tubulin polymerization", "setting": "tubulin", "value": "did not induce tubulin polymerization"}]}, {"smiles": "COc1cc([C@@H]2c3cc4c(cc3[C@@H](O[C@@H]3O[C@@H]5CO[C@@H](C)O[C@H]5[C@H](O)[C@H]3O)[C@H]3COC(=O)[C@H]23)OCO4)cc(OC)c1O", "note": "[Etoposide, etoposide, reference compound]", "values": [{"measurement": "pIC50", "setting": "[6]", "value": 7.54}, {"measurement": "pIC50", "setting": "[7]", "value": 5.46}, {"measurement": "fold resistance vs original CCRF-CEM", "setting": "CCRF-CEM/VM2; CCRF-CEM/VM2", "value": 69, "unit": "fold"}, {"measurement": "pIC50", "setting": "CCRF-CEM/VM2; Homo sapiens, CCRF-CEM/VM2, exposed to teniposide 12 months", "value": 4.70}, {"measurement": "Therapeutic Effect Rank Order", "setting": "[8]", "value": "Taxol, dEpoB, VBL>VP-16"}, {"measurement": "Therapeutic Effect Rank Order", "setting": "[2]; PC-3, i.v. infusion", "value": "Taxol, VBL>dEpoB>>VP-16"}, {"measurement": "Therapeutic Effect Rank Order", "setting": "[3]; i.v. infusion", "value": "dEpoB>>VP-16, Taxol>VBL, Adriamycin"}]}, {"smiles": "C/C(=C\\c1csc(C)n1)[C@@H]1C[C@@H]2O[C@]2(C)CCC[C@H](C)[C@H](O)[C@@H](C)C(=O)C(C)(C)[C@@H](O)CC(=O)O1", "note": "[EpoB, epothilone B, reference compound]", "values": [{"measurement": "pIC50", "setting": "[9]", "value": 8.74}, {"measurement": "pIC50", "setting": "[10]", "value": 9.24}, {"measurement": "Therapeutic Effect Rank Order", "setting": "B16 Melanoma", "value": "dEpoB>Taxol>>EpoB"}, {"measurement": "drop in body-weight that led to lethality", "setting": "[11]", "value": "14-20%"}, {"measurement": "pIC50", "setting": "UL-3-B/Taxol; UL-3-B/Taxol", "value": 8.91}, {"measurement": "cross-resistance (fold of resistance vs parent cell line)", "setting": "UL-3-B/Taxol; UL-3-B/Taxol vs UL-3-C", "value": 2.1, "unit": "x"}, {"measurement": "Therapeutic Effect Rank Order", "setting": "[5]", "value": "dEpoB>Camptothecin>Taxol>VBL, EpoB"}]}]}
